Source: article PMC7762994 (Viruses, 2020)
Read-outs that look alike come from different tables or passages of the source.

What was measured:
[1] = system: Hazara virus (HAZV); experiment: microbe, parasite or virus in culture; type: cell-based
[2] = system: CCHFV; type: cell-based, Crimean-Congo hemorrhagic fever virus; details: Vero cells, MOI 1, 10 µM, 48 h
[3] = Viability of SW13 cells by nuclei count in the HAZV antiviral assay; type: cell-based; details: human, SW13 cells inoculated with HAZV; SW13 cells, nuclei count relative to DMSO, 10 μM, 24 h
[4] = system: SW13 cells; experiment: as above; type: cell-based; details: Homo sapiens
[5] = system: EBOV; type: cell-based, Sudan Ebolavirus; details: Vero cells, MOI 0.5, 10 µM, 48 h
[6] = system: SARS-CoV-2; type: cell-based
[7] = system: CoV 229E; experiment: CoV 229E titer in Huh7 cells, end-point dilution assay; type: cell-based, Coronavirus 229E; details: MOI 5, 10 µM, 24 h
[8] = target: OGG1 (Homo sapiens, UniProt O15527); experiment: In vitro OGG1 activity assay; type: biochemical; details: for OGG1 activity (in words): Figure 3A
[9] = system: Huh7 cells; experiment: Cell viability, resazurin assay; type: cell-based; details: Huh7 cells, 24, 48 or 72 h
[10] = system: Vero cells; experiment: Cell viability, MTT assay; type: cell-based; details: 48 h
[11] = system: Hazara virus (HAZV); experiment: microbe, parasite or virus in culture; type: cell-based; details: SW13, 24 h; for inhibition at 10 µM: read-out: Viral inhibition on primary infection (%)

Sequence of OGG1 (O15527 whole entry): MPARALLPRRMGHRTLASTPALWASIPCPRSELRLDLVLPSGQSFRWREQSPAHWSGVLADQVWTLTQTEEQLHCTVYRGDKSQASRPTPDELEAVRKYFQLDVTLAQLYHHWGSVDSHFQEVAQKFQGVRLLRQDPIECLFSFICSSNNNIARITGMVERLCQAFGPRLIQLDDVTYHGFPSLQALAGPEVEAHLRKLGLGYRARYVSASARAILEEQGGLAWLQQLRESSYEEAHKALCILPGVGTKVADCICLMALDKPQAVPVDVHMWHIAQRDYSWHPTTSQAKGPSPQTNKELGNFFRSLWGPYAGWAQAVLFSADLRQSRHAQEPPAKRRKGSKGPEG

| SMILES | reduction of HAZV viral titer ([1]; 100 µM, positive control) [%] | reduction of CCHFV viral titer [2] [%] | viability at 24 h, 10 µM [3] [%] | EC50 ([4]; SW13, 24 h, read-out: EC50 Living cells) [µM] | EC50 ([4]; HAZV, SW13, MOI 1, 24 h, read-out: Viability (nuclei count) EC50) [µM] | reduction of EBOV viral titer [5] [%] | reduction of SARS-CoV-2 titer [6] [%] | reduction of CoV 229E titer [7] [%] | OGG1 activity (in words) [8] | IC50 ([1]; Hazara virus, SW13, 24 h, read-out: Antiviral on titer (µM) IC50 [µM]) [µM] | EC50 ([1]; Hazara virus, SW13, read-out: EC50 Viral titer) [µM] | inhibition at 10 µM ([1]; Hazara virus, Vero, 24 h, read-out: Viral inhibition on titer (%)) [%] | reduction of HAZV titer ([1]; SW13 cells, MOI 1, 10 µM, 24 h) [%] | toxicity profile, cellular viability by resazurin assay [9] | toxicity profile, viability by MTT assay [10] | IC50 ([11]; read-out: Antiviral on primary infection IC50 [µM]) [µM] | EC50 ([11]; read-out: EC50 Infected cells (primary infection)) [µM] | inhibition at 10 µM [11] [%] | IC50 [8] [µM] |
| --- | --- | --- | --- | --- | --- | --- | --- | --- | --- | --- | --- | --- | --- | --- | --- | --- | --- | --- | --- |
| NC(=O)c1ncn([C@@H]2O[C@H](CO)[C@@H](O)[C@H]2O)n1 [Ribavirin, reference compound] | 98 |  |  |  |  |  |  |  |  |  |  |  |  |  |  |  |  |  |  |
| O=C(Nc1ccc(I)cc1)N1CCC(n2c(=O)[nH]c3cc(Cl)ccc32)CC1 [TH3289] |  | 70 | 77 | 46.5 | 47.5 | 40 | 58 | 84 | Micromolar OGG1activity | 14.7 | 14.7 | 95 | 94 | favourable toxicity profile | favourable toxicity profile | 18.7 | 18.7 | 58 |  |
| O=C(Nc1ccc(I)cc1)N1CCC(c2c[nH]c3ccccc23)CC1 [TH4448, 4‐(1H‐indol‐3‐yl)‐N‐(4‐iodophenyl)piperidine‐1‐carboxamide] |  |  | 82 |  |  |  |  |  | No OGG1 activity |  |  |  |  |  |  |  |  | 98 | > 99 |
